Measured values from patent publication US11236087B2, “Highly active pyrazolo-piperidine substituted indole-2-carboxamides active against the hepatitis B virus (HBV)” (AiCuris GmbH & Co. KG, priority 2017, dated 2022).

Experiments:
HBV = assay: Determination of HBV DNA from the supernatants of HepAD38 cells (anti-HBV activity); type: cell-based, hepatitis B virus; settings: Hepatitis B virus, 144 h; HBV DNA in HepAD38 supernatant, day 6, qPCR; read-out: Cell Activity (EC50)
Experimental: Determination of HBV DNA from the Supernatants of HepAD38 Cells
The anti-HBV activity was analysed in the stable transfected cell line HepAD38, which has been described to secrete high levels of HBV virion particles (Ladner et al., 1997). In brief, HepAD38 cells were cultured at 37° C. at 5% CO2 and 95% humidity in 200 μl maintenance medium, which was Dulbecco's modified Eagle's medium/Nutrient Mixture F-12 (Gibco, Karlsruhe), 10% fetal bovine serum (PAN Biotech Aidenbach) supplemented with 50 μg/ml penicillin/streptomycin (Gibco, Karlsruhe), 2 mM L-glutamine (PAN Biotech, Aidenbach), 400 μg/ml G418 (AppliChem, Darmstadt) and 0.3 μg/ml tetracycline. Cells were subcultured once a week in a 1:5 ratio, but were usually not passaged more than ten times. For the assay 60,000 cells were seeded in maintenance medium without any tetracycline into each well of a 96-well plate and treated with serial half-log dilutions of test compound. To minimize edge effects the outer 36 wells of the plate were not used but were filled with assay medium. On each assay plate six wells for the virus control (untreated HepAD38 cells) and six wells for the cell control (HepAD38 cells treated with 0.3 μg/ml tetracycline) were allocated, respectively. In addition, one plate set with reference inhibitors like BAY 41-4109, entecavir, and lamivudine instead of screening compounds were prepared in each experiment. In general, experiments were performed thrice in triplicates. At day 6 HBV DNA from 100 μl filtrated cell culture supernatant (AcroPrep Advance 96 Filter Plate, […] Supor membran, PALL GmbH, Dreieich) was automatically purified on the MagNa Pure LC instrument using the MagNA Pure 96 DNA and Viral NA Small Volume Kit (Roche Diagnostics, Mannheim) according to the instructions of the manufacturer. EC50 values were calculated from relative copy numbers of HBV DNA In brief, 5 μl of the 100 μl eluate containing HBV DNA were subjected to PCR LC480 Probes Master Kit (Roche) together with 1 μM antisense primer […], 0.5 μM sense primer […], 0.3 μM hybprobes […]-FL and LC640-[…]-PH (TIBMoBiol, Berlin) to a final volume of 12.5 μl. The PCR was performed on the Light Cycler 480 real time system (Roche Diagnostics, Mannheim) using the following protocol: Pre-incubation for 1 min at 95° C., amplification: 40 cycles×(10 sec at 95° C., 50 sec at 60° C., 1 sec at 70° C.), cooling for 10 sec at 40° C. Viral load was quantitated against known standards using HBV plasmid DNA of pCH-9/3091 (Nassal et al., 1990, Cell 63: 1357-1363) and the LightCycler 480 SW 1.5 software (Roche Diagnostics, Mannheim) and EC50 values were calculated using non-linear regression with GraphPad Prism 6 (GraphPad Software Inc., La Jolla, USA).

[1] = Cell viability assay (AlamarBlue) in HepAD38 cells; settings: human

Row | SMILES | EC50 (HBV) | CC50 at 6 days [1]
1 | CC(=O)N1CCN(C(=O)c2[nH]nc3c2CN(C(=O)c2cc4ccccc4[nH]2)CC3)C2(CC2)C1 [Example 236, 1-{4-[5-(1H-indole-2-carbonyl)-2H,4H,5H,6H,7H-pyrazolo[4,3-c]pyridine-3-carbonyl]-4,7-diazaspiro[2.5]octan-7-yl}ethan-1-one] | 1 to 25 µM | > 10 µM
2 | Cc1noc(C2(N(C)C(=O)c3[nH]nc4c3CN(C(=O)c3cc5ccccc5[nH]3)CC4)CC2)n1 [Example 398, 5-(1H-indole-2-carbonyl)-N-methyl-N-[1-(3-methyl-1,2,4-oxadiazol-5-yl)cyclopropyl]-2H,4H,5H,6H,7H-pyrazolo[4,3-c]pyridine-3-carboxamide] | < 1 µM | > 10 µM
3 | CN(C(=O)c1n[nH]c2c1CN(C(=O)c1cc3c(Cl)c(F)ccc3[nH]1)CC2)C1(CO)CC1 [Example 239, 5-(4-chloro-5-fluoro-1H-indole-2-carbonyl)-N-[1-(hydroxymethyl)cyclopropyl]-N-methyl-1H,4H,5H,6H,7H-pyrazolo[4,3-c]pyridine-3-carboxamide] | < 1 µM | > 10 µM
4 | Cc1cc(F)cc2[nH]c(C(=O)N3CCc4[nH]nc(C(=O)N(C)C5(CO)CC5)c4C3)cc12 [Example 243, 5-(6-fluoro-4-methyl-1H-indole-2-carbonyl)-N-[1-(hydroxymethyl)cyclopropyl]-N-methyl-1H,4H,5H,6H,7H-pyrazolo[4,3-c]pyridine-3-carboxamide] | < 1 µM | > 10 µM
5 | CN(C(=O)c1n[nH]c2c1CN(C(=O)c1cc3ccccc3[nH]1)CC2)C1(CCC(N)=O)CC1 [Example 237, N-[1-(2-carbamoylethyl)cyclopropyl]-5-(1H-indole-2-carbonyl)-N-methyl-1H,4H,5H,6H,7H-pyrazolo[4,3-c]pyridine-3-carboxamide] | < 100 µM | > 10 µM
6 | O=C(c1cc2ccccc2[nH]1)N1CCc2[nH]nc(C(=O)N3CCCC(F)(F)C3)c2C1 [Example 187, 2-[3-(3,3-difluoropiperidine-1-carbonyl)-1H,4H,5H,6H,7H-pyrazolo[4,3-c]pyridine-5-carbonyl]-1H-indole] | < 1 µM | > 10 µM
7 | COCCN(C)S(=O)(=O)c1n[nH]c2c1CN(C(=O)c1cc3ccccc3[nH]1)CC2 [Example 212, 5-(1H-indole-2-carbonyl)-N-(2-methoxyethyl)-N-methyl-1H,4H,5H,6H,7H-pyrazolo[4,3-c]pyridine-3-sulfonamide] | 1 to 25 µM | > 10 µM
8 | CN(C(=O)c1[nH]nc2c1CN(C(=O)c1cc3ccccc3[nH]1)CC2)C1(c2ccno2)CC1 [Example 402, 5-(1H-indole-2-carbonyl)-N-methyl-N-[1-(1,2-oxazol-5-yl)cyclopropyl]-2H,4H,5H,6H,7H-pyrazolo[4,3-c]pyridine-3-carboxamide] | < 1 µM | > 10 µM
9 | O=C(c1cc2c(Cl)c(F)ccc2[nH]1)N1CCc2[nH]nc(C(=O)N3CCC(F)(F)C3)c2C1 [Example 217, 4-chloro-2-[3-(3,3-difluoropyrrolidine-1-carbonyl)-1H,4H,5H,6H,7H-pyrazolo[4,3-c]pyridine-5-carbonyl]-5-fluoro-1H-indole] | < 1 µM | > 10 µM
10 | O=C(c1cc2ccccc2[nH]1)N1CCc2[nH]nc(C(=O)N3CCC4(CCO4)C3)c2C1 (stereo not drawn) [Example 182, 2-(3-{1-oxa-6-azaspiro[3.4]octane-6-carbonyl}-1H,4H,5H,6H,7H-pyrazolo[4,3-c]pyridine-5-carbonyl)-1H-indole] | 1 to 25 µM | > 10 µM
11 | O=C(c1cc2ccccc2[nH]1)N1CCc2[nH]nc(S(=O)(=O)N3CC(F)(F)C3)c2C1 [Example 209, 2-{3-[(3,3-difluoroazetidin-1-yl)sulfonyl]-1H,4H,5H,6H,7H-pyrazolo[4,3-c]pyridine-5-carbonyl}-1H-indole] | < 1 µM | > 10 µM
12 | O=C(c1cc2ccccc2[nH]1)N1CCc2[nH]nc(S(=O)(=O)N3CCCC3)c2C1 [Example 210, 2-[3-(pyrrolidine-1-sulfonyl)-1H,4H,5H,6H,7H-pyrazolo[4,3-c]pyridine-5-carbonyl]-1H-indole] | < 1 µM | > 10 µM
13 | O=C(c1cc2ccc(F)cc2[nH]1)N1CCc2n[nH]c(C3CCC3)c2C1 [Example 393, 2-{3-cyclobutyl-2H,4H,5H,6H,7H-pyrazolo[4,3-c]pyridine-5-carbonyl}-6-fluoro-1H-indole] | < 1 µM | > 10 µM
14 | O=C(c1cc2ccc(F)c(F)c2[nH]1)N1CCc2n[nH]c(C3CCC3)c2C1 [Example 389, 2-{3-cyclobutyl-2H,4H,5H,6H,7H-pyrazolo[4,3-c]pyridine-5-carbonyl}-6,7-difluoro-1H-indole] | < 1 µM | > 10 µM
15 | O=C(c1cc2c(F)c(F)c(F)cc2[nH]1)N1CCc2n[nH]c(-c3cscn3)c2C1 [Example 11, 4,5,6-trifluoro-2-[3-(1,3-thiazol-4-yl)-2H,4H,5H,6H,7H-pyrazolo[4,3-c]pyridine-5-carbonyl]-1H-indole] | < 1 µM | > 10 µM
16 | CN(C(=O)c1n[nH]c2c1CN(C(=O)c1cc3c(F)c(F)ccc3[nH]1)CC2)C1(CO)CC1 [Example 240, 5-(4,5-difluoro-1H-indole-2-carbonyl)-N-[1-(hydroxymethyl)cyclopropyl]-N-methyl-1H,4H,5H,6H,7H-pyrazolo[4,3-c]pyridine-3-carboxamide] | < 1 µM | > 10 µM
17 | O=C(c1cc2c(F)ccc(F)c2[nH]1)N1CCc2[nH]nc(C3CCC3)c2C1 [Example 396, 2-{3-cyclobutyl-1H,4H,5H,6H,7H-pyrazolo[4,3-c]pyridine-5-carbonyl}-4,7-difluoro-1H-indole] | < 1 µM | > 10 µM
18 | O=C(c1cc2cccc(F)c2[nH]1)N1CCc2n[nH]c(C3CCC3)c2C1 [Example 392, 2-{3-cyclobutyl-2H,4H,5H,6H,7H-pyrazolo[4,3-c]pyridine-5-carbonyl}-7-fluoro-1H-indole] | < 1 µM | > 10 µM
19 | O=C(c1cc2c(F)c(F)ccc2[nH]1)N1CCc2n[nH]c(C3CCC3)c2C1 [Example 391, 2-{3-cyclobutyl-2H,4H,5H,6H,7H-pyrazolo[4,3-c]pyridine-5-carbonyl}-4,5-difluoro-1H-indole] | < 1 µM | > 10 µM
20 | O=C(c1cc2c(Cl)cc(F)cc2[nH]1)N1CCc2[nH]nc(C34CC(C3)C4)c2C1 [Example 335, 2-(3-{bicyclo[1.1.1]pentan-1-yl}-1H,4H,5H,6H,7H-pyrazolo[4,3-c]pyridine-5-carbonyl)-4-chloro-6-fluoro-1H-indole] | < 1 µM | > 10 µM
21 | O=C(c1cc2cc(F)c(F)cc2[nH]1)N1CCc2n[nH]c(-c3cscn3)c2C1 [Example 14, 5,6-difluoro-2-[3-(1,3-thiazol-4-yl)-2H,4H,5H,6H,7H-pyrazolo[4,3-c]pyridine-5-carbonyl]-1H-indole] | < 1 µM | > 10 µM
22 | CCc1cc(F)cc2[nH]c(C(=O)N3CCc4[nH]nc(C(=O)N5CCCC56CC6)c4C3)cc12 [Example 214, 2-(3-{4-azaspiro[2.4]heptane-4-carbonyl}-1H,4H,5H,6H,7H-pyrazolo[4,3-c]pyridine-5-carbonyl)-4-ethyl-6-fluoro-1H-indole] | < 1 µM | > 10 µM
23 | CCOCC1(N(C)C(=O)c2[nH]nc3c2CN(C(=O)c2cc4ccc(F)cc4[nH]2)CC3)CC1 [Example 395, N-[1-(ethoxymethyl)cyclopropyl]-5-(6-fluoro-1H-indole-2-carbonyl)-N-methyl-2H,4H,5H,6H,7H-pyrazolo[4,3-c]pyridine-3-carboxamide] | < 1 µM | > 10 µM
24 | O=C(c1cc2c(C(F)F)cc(F)cc2[nH]1)N1CCc2n[nH]c(C3CCC3)c2C1 [Example 400, 2-{3-cyclobutyl-2H,4H,5H,6H,7H-pyrazolo[4,3-c]pyridine-5-carbonyl}-4-(difluoromethyl)-6-fluoro-1H-indole] | < 1 µM | > 10 µM
